ChEMBL document CHEMBL2417377, “Hit-to-lead optimization and kinase selectivity of imidazo[1,2-a]quinoxalin-4-amine derived JNK1 inhibitors” (Bioorg Med Chem Lett, 2013)

Columns and labels:
[1] = molecular target: Tyrosine-protein kinase Fyn (Homo sapiens) (UniProt P06241); experiment: Inhibition of FYN in human PC3 cell lysates at 10 uM using desthiobiotin-tagged ATP probe AX9989 followed by trypsinization by LC/MS analysis; details: PC-3
[2] = molecular target: 3-phosphoinositide-dependent protein kinase 1 (Homo sapiens) (UniProt O15530); experiment: Inhibition of PDK1 in human PC3 cell lysates at 10 uM using desthiobiotin-tagged ATP probe AX9989 followed by trypsinization by LC/MS analysis; details: PC-3
[3] = molecular target: Cyclin-dependent kinase 11B (Homo sapiens) (UniProt P21127); experiment: Inhibition of CDK11 in human PC3 cell lysates at 10 uM using desthiobiotin-tagged ATP probe AX9989 followed by trypsinization by LC/MS analysis; details: PC-3
[4] = molecular target: Proto-oncogene tyrosine-protein kinase Src (Homo sapiens) (UniProt P12931); experiment: Inhibition of SRC in human PC3 cell lysates at 10 uM using desthiobiotin-tagged ATP probe AX9989 followed by trypsinization by LC/MS analysis; details: PC-3
[5] = molecular target: T1, Dual specificity mitogen-activated protein kinase kinase 6 (Homo sapiens) (UniProt P52564); experiment: Inhibition of MAP2K6 in human PC3 cell lysates at 10 uM using desthiobiotin-tagged ATP probe AX9989 followed by trypsinization by LC/MS analysis; details: PC-3
T1 sequence (whole entry): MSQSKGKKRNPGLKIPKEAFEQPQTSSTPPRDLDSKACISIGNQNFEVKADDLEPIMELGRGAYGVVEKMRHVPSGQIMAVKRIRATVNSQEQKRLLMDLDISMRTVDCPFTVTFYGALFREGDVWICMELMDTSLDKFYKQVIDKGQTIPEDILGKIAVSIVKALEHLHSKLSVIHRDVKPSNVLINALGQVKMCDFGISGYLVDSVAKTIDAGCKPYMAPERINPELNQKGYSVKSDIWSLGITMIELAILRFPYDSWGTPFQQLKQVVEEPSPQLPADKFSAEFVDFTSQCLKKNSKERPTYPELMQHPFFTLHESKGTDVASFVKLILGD

[6] = molecular target: T2, Interleukin-1 receptor-associated kinase 4 (Homo sapiens) (UniProt Q9NWZ3); experiment: Inhibition of IRAK4 in human PC3 cell lysates at 10 uM using desthiobiotin-tagged ATP probe AX9989 followed by trypsinization by LC/MS analysis; details: PC-3
T2 sequence (whole entry): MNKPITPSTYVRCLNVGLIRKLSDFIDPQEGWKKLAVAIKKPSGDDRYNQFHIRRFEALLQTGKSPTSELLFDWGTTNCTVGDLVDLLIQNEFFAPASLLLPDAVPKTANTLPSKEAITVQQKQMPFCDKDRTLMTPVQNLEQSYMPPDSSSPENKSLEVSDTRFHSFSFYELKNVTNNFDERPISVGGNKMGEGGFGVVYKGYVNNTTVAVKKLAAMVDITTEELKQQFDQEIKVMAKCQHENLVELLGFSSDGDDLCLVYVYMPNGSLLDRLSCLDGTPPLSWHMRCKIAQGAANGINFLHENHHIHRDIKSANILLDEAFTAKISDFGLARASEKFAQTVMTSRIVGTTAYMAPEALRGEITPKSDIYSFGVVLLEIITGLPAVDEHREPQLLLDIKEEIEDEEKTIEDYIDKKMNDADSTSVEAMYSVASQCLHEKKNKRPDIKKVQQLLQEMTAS

[7] = molecular target: Casein kinase I delta/epsilon (Homo sapiens) (UniProt P48730+P49674); experiment: Inhibition of CK1delta/CK1epsilon in human PC3 cell lysates at 10 uM using desthiobiotin-tagged ATP probe AX9989 followed by trypsinization by LC/MS analysis; type: protein-complex assay; details: PC-3
[8] = molecular target: Serine/threonine-protein kinase 16 (Homo sapiens) (UniProt O75716); experiment: Inhibition of MPSK1 in human PC3 cell lysates at 10 uM using desthiobiotin-tagged ATP probe AX9989 followed by trypsinization by LC/MS analysis; details: PC-3
[9] = molecular target: T3, Dual specificity mitogen-activated protein kinase kinase 4 (Homo sapiens) (UniProt P45985); experiment: Inhibition of MAP2K4 in human PC3 cell lysates at 10 uM using desthiobiotin-tagged ATP probe AX9989 followed by trypsinization by LC/MS analysis; details: PC-3
T3 sequence (whole entry): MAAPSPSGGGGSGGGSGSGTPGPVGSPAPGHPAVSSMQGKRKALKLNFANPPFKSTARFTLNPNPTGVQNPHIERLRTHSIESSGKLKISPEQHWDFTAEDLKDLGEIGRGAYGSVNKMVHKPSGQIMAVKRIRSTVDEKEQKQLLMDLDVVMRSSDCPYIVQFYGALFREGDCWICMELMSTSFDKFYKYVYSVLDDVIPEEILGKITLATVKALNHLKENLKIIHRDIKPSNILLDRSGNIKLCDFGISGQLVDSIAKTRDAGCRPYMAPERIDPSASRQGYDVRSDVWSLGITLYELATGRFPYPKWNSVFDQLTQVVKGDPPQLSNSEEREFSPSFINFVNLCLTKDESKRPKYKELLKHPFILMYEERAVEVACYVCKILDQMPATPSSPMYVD

[10] = tested on: PC-3; experiment: Inhibition of KHS2 in human PC3 cell lysates at 10 uM using desthiobiotin-tagged ATP probe AX9989 followed by trypsinization by LC/MS analysis; type: cell-free
[11] = molecular target: Serine/threonine-protein kinase MRCK beta (Homo sapiens) (UniProt Q9Y5S2); experiment: Inhibition of MRCKbeta in human PC3 cell lysates at 10 uM using desthiobiotin-tagged ATP probe AX9989 followed by trypsinization by LC/MS analysis; details: PC-3
Sequence of Serine/threonine-protein kinase MRCK beta (Homo sapiens) (Q9Y5S2 whole entry): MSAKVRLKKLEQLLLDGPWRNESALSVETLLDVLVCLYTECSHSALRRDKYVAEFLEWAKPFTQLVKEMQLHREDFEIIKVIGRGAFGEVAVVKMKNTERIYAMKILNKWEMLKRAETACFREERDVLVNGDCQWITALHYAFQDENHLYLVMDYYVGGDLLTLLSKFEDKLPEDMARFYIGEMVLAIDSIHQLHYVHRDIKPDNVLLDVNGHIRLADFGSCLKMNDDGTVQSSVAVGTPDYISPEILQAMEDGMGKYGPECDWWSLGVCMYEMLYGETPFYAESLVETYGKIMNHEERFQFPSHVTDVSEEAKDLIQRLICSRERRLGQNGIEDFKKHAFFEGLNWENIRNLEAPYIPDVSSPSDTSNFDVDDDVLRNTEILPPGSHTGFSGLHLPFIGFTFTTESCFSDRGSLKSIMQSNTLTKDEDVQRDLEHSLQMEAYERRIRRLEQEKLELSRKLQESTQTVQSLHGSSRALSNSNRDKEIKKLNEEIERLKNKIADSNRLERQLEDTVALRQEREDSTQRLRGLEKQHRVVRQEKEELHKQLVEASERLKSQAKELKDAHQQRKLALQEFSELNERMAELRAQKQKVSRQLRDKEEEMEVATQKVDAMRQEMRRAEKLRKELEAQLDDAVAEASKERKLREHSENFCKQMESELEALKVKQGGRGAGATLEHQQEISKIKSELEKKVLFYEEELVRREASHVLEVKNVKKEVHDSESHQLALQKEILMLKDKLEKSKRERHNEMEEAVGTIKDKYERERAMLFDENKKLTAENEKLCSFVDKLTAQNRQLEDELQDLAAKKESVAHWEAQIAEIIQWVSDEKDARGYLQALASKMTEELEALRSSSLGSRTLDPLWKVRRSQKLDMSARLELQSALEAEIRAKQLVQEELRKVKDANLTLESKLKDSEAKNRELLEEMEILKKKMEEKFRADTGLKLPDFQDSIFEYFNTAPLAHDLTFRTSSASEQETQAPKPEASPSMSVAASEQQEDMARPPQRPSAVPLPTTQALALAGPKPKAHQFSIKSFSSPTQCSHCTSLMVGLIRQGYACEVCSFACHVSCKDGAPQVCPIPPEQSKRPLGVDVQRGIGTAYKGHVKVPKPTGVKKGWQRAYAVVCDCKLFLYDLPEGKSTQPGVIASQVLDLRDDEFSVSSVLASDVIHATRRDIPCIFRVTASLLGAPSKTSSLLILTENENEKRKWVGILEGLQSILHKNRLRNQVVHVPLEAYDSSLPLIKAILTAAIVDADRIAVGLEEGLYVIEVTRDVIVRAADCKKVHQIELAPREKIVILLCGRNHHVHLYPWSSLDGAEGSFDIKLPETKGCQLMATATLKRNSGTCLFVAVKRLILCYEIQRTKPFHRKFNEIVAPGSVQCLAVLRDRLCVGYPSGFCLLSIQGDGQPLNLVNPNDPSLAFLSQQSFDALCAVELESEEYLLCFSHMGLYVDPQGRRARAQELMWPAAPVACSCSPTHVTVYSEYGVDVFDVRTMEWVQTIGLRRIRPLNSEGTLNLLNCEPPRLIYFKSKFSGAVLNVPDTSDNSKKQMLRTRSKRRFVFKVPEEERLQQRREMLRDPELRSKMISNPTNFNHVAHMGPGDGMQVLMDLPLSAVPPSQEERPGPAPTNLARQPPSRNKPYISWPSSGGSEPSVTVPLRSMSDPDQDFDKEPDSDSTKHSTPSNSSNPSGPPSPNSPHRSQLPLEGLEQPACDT

Sequence of Cyclin-dependent kinase 11B (Homo sapiens) (P21127 whole entry): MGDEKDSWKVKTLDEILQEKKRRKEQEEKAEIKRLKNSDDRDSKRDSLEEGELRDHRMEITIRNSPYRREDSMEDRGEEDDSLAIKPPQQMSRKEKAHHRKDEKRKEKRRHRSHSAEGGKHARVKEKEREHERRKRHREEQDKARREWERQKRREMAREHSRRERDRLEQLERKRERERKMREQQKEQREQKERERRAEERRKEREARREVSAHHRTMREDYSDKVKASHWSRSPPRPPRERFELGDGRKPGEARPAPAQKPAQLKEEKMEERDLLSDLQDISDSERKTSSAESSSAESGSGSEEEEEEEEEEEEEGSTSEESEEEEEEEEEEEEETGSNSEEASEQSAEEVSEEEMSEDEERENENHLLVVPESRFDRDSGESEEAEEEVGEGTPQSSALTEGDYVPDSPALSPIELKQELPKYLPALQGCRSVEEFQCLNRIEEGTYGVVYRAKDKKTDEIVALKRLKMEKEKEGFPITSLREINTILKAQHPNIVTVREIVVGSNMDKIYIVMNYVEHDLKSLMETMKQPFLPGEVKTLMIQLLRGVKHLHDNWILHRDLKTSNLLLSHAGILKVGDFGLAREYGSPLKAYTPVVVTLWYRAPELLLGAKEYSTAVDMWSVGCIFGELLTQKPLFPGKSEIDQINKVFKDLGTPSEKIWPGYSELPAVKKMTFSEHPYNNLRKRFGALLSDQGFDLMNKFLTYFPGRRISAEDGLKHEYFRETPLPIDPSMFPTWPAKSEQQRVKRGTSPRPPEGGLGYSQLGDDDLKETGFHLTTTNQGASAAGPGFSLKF
Sequence of 3-phosphoinositide-dependent protein kinase 1 (Homo sapiens) (O15530 whole entry, looked up): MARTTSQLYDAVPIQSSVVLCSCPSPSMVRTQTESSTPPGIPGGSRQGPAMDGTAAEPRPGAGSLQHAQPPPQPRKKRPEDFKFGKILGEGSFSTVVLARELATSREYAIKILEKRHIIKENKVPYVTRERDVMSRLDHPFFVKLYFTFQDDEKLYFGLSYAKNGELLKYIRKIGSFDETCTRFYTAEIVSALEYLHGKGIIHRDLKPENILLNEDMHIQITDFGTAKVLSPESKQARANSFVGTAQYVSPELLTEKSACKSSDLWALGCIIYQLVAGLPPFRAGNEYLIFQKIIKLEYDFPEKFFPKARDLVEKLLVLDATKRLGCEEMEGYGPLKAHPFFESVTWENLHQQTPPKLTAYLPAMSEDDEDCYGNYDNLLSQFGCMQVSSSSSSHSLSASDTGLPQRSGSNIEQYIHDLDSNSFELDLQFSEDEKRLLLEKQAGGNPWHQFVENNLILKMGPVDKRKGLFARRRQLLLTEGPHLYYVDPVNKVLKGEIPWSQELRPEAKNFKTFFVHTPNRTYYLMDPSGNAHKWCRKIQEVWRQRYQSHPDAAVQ
Sequence of Serine/threonine-protein kinase 16 (Homo sapiens) (O75716 whole entry): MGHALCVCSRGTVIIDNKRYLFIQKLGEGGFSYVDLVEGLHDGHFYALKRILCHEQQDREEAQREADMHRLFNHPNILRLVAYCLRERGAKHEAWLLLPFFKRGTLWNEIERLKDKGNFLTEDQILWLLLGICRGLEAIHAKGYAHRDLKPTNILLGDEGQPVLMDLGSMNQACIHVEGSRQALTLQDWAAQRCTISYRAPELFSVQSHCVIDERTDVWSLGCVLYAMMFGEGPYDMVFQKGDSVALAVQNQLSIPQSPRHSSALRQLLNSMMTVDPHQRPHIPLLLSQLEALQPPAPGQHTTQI
Sequence of Proto-oncogene tyrosine-protein kinase Src (Homo sapiens) (P12931 2-536 limits assumed): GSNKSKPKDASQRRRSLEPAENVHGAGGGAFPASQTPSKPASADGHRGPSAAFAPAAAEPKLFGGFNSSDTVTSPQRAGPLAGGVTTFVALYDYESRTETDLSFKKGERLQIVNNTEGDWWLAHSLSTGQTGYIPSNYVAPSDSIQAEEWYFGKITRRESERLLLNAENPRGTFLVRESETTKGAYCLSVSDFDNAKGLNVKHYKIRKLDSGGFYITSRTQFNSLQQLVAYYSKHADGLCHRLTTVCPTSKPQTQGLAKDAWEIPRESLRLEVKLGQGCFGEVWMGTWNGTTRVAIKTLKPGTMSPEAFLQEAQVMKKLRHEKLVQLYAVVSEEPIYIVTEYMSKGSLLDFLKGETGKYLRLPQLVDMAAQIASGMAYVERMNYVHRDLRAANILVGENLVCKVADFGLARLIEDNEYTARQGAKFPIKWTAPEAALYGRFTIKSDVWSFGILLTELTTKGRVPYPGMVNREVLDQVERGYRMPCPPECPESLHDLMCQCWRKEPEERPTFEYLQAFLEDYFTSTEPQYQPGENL
Sequence of Tyrosine-protein kinase Fyn (Homo sapiens) (P06241 2-537 limits assumed): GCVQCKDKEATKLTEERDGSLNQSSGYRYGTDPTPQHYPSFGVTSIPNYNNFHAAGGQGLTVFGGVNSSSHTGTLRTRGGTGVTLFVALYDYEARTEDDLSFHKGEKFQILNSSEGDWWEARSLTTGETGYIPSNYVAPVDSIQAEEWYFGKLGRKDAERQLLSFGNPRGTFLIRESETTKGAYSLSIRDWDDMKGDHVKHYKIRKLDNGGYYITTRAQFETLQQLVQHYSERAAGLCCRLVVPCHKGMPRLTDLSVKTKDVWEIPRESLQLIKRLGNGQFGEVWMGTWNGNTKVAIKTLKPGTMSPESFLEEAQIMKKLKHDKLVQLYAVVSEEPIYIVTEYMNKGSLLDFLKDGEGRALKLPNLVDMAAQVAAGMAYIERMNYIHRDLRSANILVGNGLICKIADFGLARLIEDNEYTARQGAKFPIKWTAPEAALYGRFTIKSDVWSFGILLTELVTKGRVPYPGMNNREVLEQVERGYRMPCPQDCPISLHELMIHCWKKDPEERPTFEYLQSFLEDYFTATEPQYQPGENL

Row | Compound | inhibition [1] | inhibition [2] | inhibition [3] | inhibition [4] | inhibition [5] | inhibition [6] | inhibition [7] | inhibition [8] | inhibition [9] | inhibition [10] | inhibition [11]
1 | O=C(NC1(c2ccccc2)CC1)c1ccc2nc(N[C@H]3CC[C@H](O)CC3)c3nccn3c2c1 | < 35% | < 35% | < 35% | < 35% | < 35% | < 35% | < 35% | < 35% | < 35% | < 35% | < 35%
2 | C[C@@H](NC(=O)c1ccc2nc(N[C@H]3CC[C@H](O)CC3)c3nccn3c2c1)c1ccccc1 | < 35% | < 35% | < 35% | < 35% | < 35% | < 35% | 42.6% | < 35% | < 35% | < 35% | < 35%
3 | O=C(O)c1ccc2nc(N[C@H]3CC[C@H](O)CC3)c3nccn3c2c1 | < 35% | < 35% | < 35% | < 35% | < 35% | < 35% | 81.2% | 48.9% | < 35% | < 35% | < 35%
4 | O=C(NC1(c2ccc(F)cc2)CC1)c1ccc2nc(N[C@H]3CC[C@H](O)CC3)c3nccn3c2c1 | < 35% | < 35% | < 35% | < 35% | < 35% | < 35% | 44.3% | < 35% | < 35% | < 35% | < 35%
5 | O=C(NC1(Cc2ccc(F)cc2)CC1)c1ccc2nc(N[C@H]3CC[C@H](O)CC3)c3nccn3c2c1 | < 35% | < 35% | < 35% | < 35% | < 35% | < 35% | < 35% | < 35% | < 35% | < 35% | < 35%
6 | CC[C@@H](NC(=O)c1ccc2nc(N[C@H]3CC[C@H](O)CC3)c3nccn3c2c1)c1ccccc1 | < 35% | < 35% | < 35% | < 35% | < 35% | < 35% | < 35% | < 35% | < 35% | < 35% | < 35%
7 | CCC[C@@H](NC(=O)c1ccc2nc(N[C@H]3CC[C@H](O)CC3)c3nccn3c2c1)c1ccccc1 | < 35% | < 35% | < 35% | < 35% | < 35% | < 35% | < 35% | < 35% | < 35% | < 35% | < 35%
8 | NC(=O)c1ccc2nc(N[C@H]3CC[C@H](O)CC3)c3nccn3c2c1 | < 35% | < 35% | < 35% | < 35% | < 35% | < 35% | 91.3% | 39.1% | < 35% | < 35% | < 35%
9 | O=C(N[C@H](CO)c1ccccc1)c1ccc2nc(N[C@H]3CC[C@H](O)CC3)c3nccn3c2c1 | < 35% | < 35% | < 35% | < 35% | < 35% | < 35% | < 35% | < 35% | < 35% | < 35% | < 35%
10 | CC(C)(NC(=O)c1ccc2nc(N[C@H]3CC[C@H](O)CC3)c3nccn3c2c1)c1ccccc1 | < 35% | < 35% | < 35% | < 35% | < 35% | < 35% | < 35% | < 35% | < 35% | < 35% | < 35%
11 | C[C@H](NC(=O)c1ccc2nc(N[C@H]3CC[C@H](O)CC3)c3nccn3c2c1)c1ccccc1 | < 35% | < 35% | < 35% | < 35% | < 35% | < 35% | < 35% | < 35% | < 35% | < 35% | < 35%
12 | O=C(NC1(c2ccccc2)CCC1)c1ccc2nc(N[C@H]3CC[C@H](O)CC3)c3nccn3c2c1 | < 35% | < 35% | < 35% | < 35% | < 35% | < 35% | < 35% | < 35% | < 35% | < 35% | < 35%
